This data set has as its system rats. To be noted: rat, in vivo, 30 mg/kg.

On to `CC[C@H](C)[C@@H]1C(=O)N[C@H](C2Cc3ccccc3C2)C(=O)N1[C@@H](C(=O)N1CCOCC1)c1coc(C)n1` [Example 1, (3R,6R)-3-(2,3-dihydro-1H-inden-2-yl)-1-[(1R)-1-(2-methyl-1,3-oxazol-4-yl)-2-(4-morpholinyl)-2-oxoethyl]-6-[(1S)-1-methylpropyl]-2,5-piperazinedione], for which the adverse toxicological effects entry was “no adverse toxicological effects were observed”.
